This is an account of results in patent publication US11679108B2, “Aromatic heterocyclic compound, and pharmaceutical composition and use thereof” (GUANGZHOU HENOVCOM BIOSCIENCE CO., LTD., priority 2018, dated 2023).

A value given as a limit tells only on which side of the number the result lay.

This experiment deals with ATX (Homo sapiens, UniProt Q13822). In words: Analysis in vitro: LPC was used as substrate for screening enzyme activity (Amplex Red fluorescence). It counts as biochemical. The settings on record: inhibitory activity against ATX, with LPC as substrate. From the text:
Analysis In Vitro: LPC was Used as Substrate for Screening Enzyme Activity
Principle: Lysophosphatidylcholine (LPC) as substrate is hydrolyzed by using the activity of lysoPLD enzyme, to produce lysophosphatidic acid (LPA) and choline, which is oxidized to produce H2O2 under the action of choline oxidase. In presence of horse radish peroxidase (HPR), Amplex Red reagent is reacted with H2O2 in a quantitative chemistry ratio of 1 to 1, to produce strong fluorescence products, which are detected by a fluorescent quantitative test.
Experimental procedures: the compounds to be tested were dissolved in DMSO, to prepare 10 mM of stock solution, which was diluted in a gradient concentration of 3 times with DMSO from 10 mM, to generate 10 concentration gradients. The reaction buffer solution was used for preparing a mixed solution 1 of 2 ng/μl ATX, 2 U/ml HRP and 0.2 U/ml choline oxidase in a final concentration. 20 μl of the above mixed solution 1 was added to each hole of an experiment board, […]. The compounds diluted with DMSO were transferred into an experiment board with Echo550. The reaction buffer solution was used for preparing a mixed solution 2 of […] LPC and 400 μM Amplex Red in a final concentration. 20 μl of the above mixed solution 2 was added to each hole of the experiment board. After addition, the experiment board was shook for 30 seconds on a shaker, and incubated for 30 minutes. Envision was used to read the fluorescence signals with an exciting light at 530 nm and emitted light at 590 nm. Inhibition ratio of the compounds to enzyme reaction was calculated according to the ratio of fluorescence, and IC50 of the compounds was analyzed and calculated by software, seeing Table 1.

In turn, `CCc1nc2sc(N3CCN(S(C)(=O)=O)CC3)nn2c1N(C)c1nc(-c2ccc(F)cc2)c(C#N)s1` [Example 1] yielded an IC50 of at least 1000 nM.

`CCc1nc2sc(N3CCC4(CC3)CN(S(C)(=O)=O)C4)nn2c1N(C)c1nc(-c2ccc(F)cc2)c(C#N)s1` [Example 3, 2-{[6-ethyl-2-(4-(methylsulfonyl)-2,7-diazaspiro[3.5]nonan-7-yl)imidazo[2,1-b][1,3,4]thiadiazol-5-yl](methyl)amino}-4-(4-fluorophenyl)thiazole-5-carbonitrile] yielded an IC50 of 500 to 1000 nM.

With `CCc1nc2sc(N3CC4(C3)CN(S(C)(=O)=O)C4)nn2c1N(C)c1nc(-c2ccc(F)cc2)c(C#N)s1` [Example 5], the IC50 was in the range of 500 to 1000 nM.

The molecule `CCc1nc2sc(N3CC4(CN(CC(=O)N5CC(O)C5)C4)C3)nn2c1N(C)c1nc(-c2ccc(F)cc2)c(C#N)s1` [Example 6] gave an IC50 of 100 to 500 nM.

As to `CCc1nc2sc(N3CCCC(N(C)S(C)(=O)=O)C3)nn2c1N(C)c1nc(-c2ccc(F)cc2)c(C#N)s1` (stereo not drawn) [Example 13, N-{1-[5-((5-cyano-4-(4-fluorophenyl)thiazol-2-yl)(methyl)amino)-6-ethylimidazo[2,1-b][1,3,4]thiadiazol-2-yl]piperidin-3-yl}-N-methylmethanesulfonamide], the IC50 fell in the range of 100 to 500 nM.

`CCc1nc2sc(C3CCN(S(C)(=O)=O)CC3)nn2c1N(C)c1nc(-c2ccc(F)cc2)c(C#N)s1` [Example 16, 2-{[6-ethyl-2-(1-(methylsulfonyl)piperidin-4-yl)imidazo[2,1-b][1,3,4]thiadiazol-5-yl](methyl)amino}-4-(4-fluorophenyl)-thiazole-5-carbonitrile] had an IC50 of at least 1000 nM.

Take `CCc1nc2sc(C3CCN(C(N)=O)CC3)nn2c1N(C)c1nc(-c2ccc(F)cc2)c(C#N)s1` [Example 18, 4-{5-[(5-cyano-4-(4-fluorophenyl)thiazol-2-yl](methyl)amino]-6-ethylimidazo[2,1-b][1,3,4]thiadiazol-2-yl}piperidine-1-carboxamide]: the IC50 was 100 to 500 nM.

For `CCc1nc2sc(N3CCC(N(C)C(=O)NC(C)(C)C)C3)nn2c1N(C)c1nc(-c2ccc(F)cc2)c(C#N)s1` (stereo not drawn) [Example 25, 3-tertbutyl-1-{1-[5-((5-cyano-4-(4-fluorophenyl)thiazol-2-yl)(methyl)amino)-6-ethylimidazo[2,1-b][1,3,4]thiadiazol-2-yl]pyrrolidin-3-yl}-1-methylurea], the IC50 lay within 100 to 500 nM.

`CCc1nc2sc(N3CCCC(N(C)C(=O)NC(C)(C)C)C3)nn2c1N(C)c1nc(-c2ccc(F)cc2)c(C#N)s1` (stereo not drawn) [Example 26, 3-tert-butyl-1-{1-[5-((5-cyano-4-(4-fluorophenyl)thiazol-2-yl)(methyl)amino)-6-ethylimidazo[2,1-b][1,3,4]thiadiazol-2-yl]piperidin-3-yl}-1-methylurea] registered an IC50 of at least 1000 nM.

In turn, `CCc1nc2sc(N3CCC(N(C)C(=O)NC4CC4)C3)nn2c1N(C)c1nc(-c2ccc(F)cc2)c(C#N)s1` (stereo not drawn) [Example 27, 1-{1-[5-((5-cyano-4-(4-fluorophenyl)thiazol-2-yl)(methyl)amino)-6-ethylimidazo[2,1-b][1,3,4]thiadiazol-2-yl}pyrrolidin-3-yl}-3-cyclopropyl-1-methylurea] returned a half-maximal inhibitory concentration (IC50) of 100 to 500 nM.

The molecule `CCc1nc2sc(N3CCC(N(C)S(=O)(=O)C4CC4)C3)nn2c1N(C)c1nc(-c2ccc(F)cc2)c(C#N)s1` (stereo not drawn) [Example 28, N-{1-[5-((5-cyano-4-(4-fluorophenyl)thiazol-2-yl)(methyl)amino)-6-ethylimidazo[2,1-b][1,3,4]thiadiazol-2-yl}pyrrolidin-3-yl}-N-methylcyclopropanesulfonamide] gave an IC50 of 100 to 500 nM.

For the molecule `CCc1nc2sc(N3CCC(N(C)C(=O)NC)C3)nn2c1N(C)c1nc(-c2ccc(F)cc2)c(C#N)s1` (stereo not drawn) [Example 29, 1-{1-[5-((5-cyano-4-(4-fluorophenyl)thiazol-2-yl)(methyl)amino)-6-ethylimidazo[2,1-b][1,3,4]thiadiazol-2-yl}pyrrolidin-3-yl}-1,3-dimethylurea], the half-maximal inhibitory concentration (IC50) was in the range of 0.01 to 100 nM.

Take `CCc1nc2sc(N3CCC(N(C)C(=O)N4CC(O)C4)C3)nn2c1N(C)c1nc(-c2ccc(F)cc2)c(C#N)s1` (stereo not drawn) [Example 30, N-{1-[5-((5-cyano-4-(4-fluorophenyl)thiazol-2-yl)(methyl)amino)-6-ethylimidazo[2,1-b][1,3,4]thiadiazol-2-yl}pyrrolidin-3-yl}-3-hydroxy-N-methylazetidine-1-carboxamide]: the IC50 was in the range of 0.01 to 100 nM.

`CCc1nc2sc(N3CCC(N(C)C(=O)N(C)C)C3)nn2c1N(C)c1nc(-c2ccc(F)cc2)c(C#N)s1` (stereo not drawn) [Example 31, 1-{1-[5-((5-cyano-4-(4-fluorophenyl)thiazol-2-yl)(methyl)amino)-6-ethylimidazo[2,1-b][1,3,4]thiadiazol-2-yl]pyrrolidin-3-yl}-1,3,3-trimethylurea] displayed an IC50 of 100 to 500 nM.

Regarding `CCc1nc2sc(N3CCC(N(C)C(=O)N4CCOCC4)C3)nn2c1N(C)c1nc(-c2ccc(F)cc2)c(C#N)s1` (stereo not drawn) [Example 32, N-{1-[5-((5-cyano-4-(4-fluorophenyl)thiazol-2-yl)(methyl)amino)-6-ethylimidazo[2,1-b][1,3,4]thiadiazol-2-yl}pyrrolidin-3-yl}-N-methylmorpholine-4-carboxamide], the half-maximal inhibitory concentration (IC50) was in the range of 100 to 500 nM.

Take `CCc1nc2sc(N3CCC(N(C)CC(=O)N4CC(F)C4)C3)nn2c1N(C)c1nc(-c2ccc(F)cc2)c(C#N)s1` (stereo not drawn) [Example 33, 2-{[6-ethyl-2-(3-((2-(3-fluoroazetidin-1-yl)-2-oxoethyl)(methyl)amino)pyrrolidin-1-yl)imidazo[2,1-b][1,3,4]thiadiazol-5-yl](methyl)amino}-4-(4-fluorophenyl)thiazole-5-carbonitrile]: the IC50 lay in the range of 0.01 to 100 nM.

Molecule `CCc1nc2sc(N3CCC(N(C)CC(=O)N4CCOCC4)C3)nn2c1N(C)c1nc(-c2ccc(F)cc2)c(C#N)s1` (stereo not drawn) [Example 34, 2-{[6-ethyl-2-(3-(methyl(2-mophlin-2-oxoethyl)amino)pyrrolidin-1-yl)imidazo[2,1-b][1,3,4]thiadiazol-5-yl](methyl)amino}-4-(4-fluorophenyl)thiazole-5-carbonitrile] had a half-maximal inhibitory concentration (IC50) of 0.01 to 100 nM.

In the case of `CCc1nc2sc(N3CCC(N(C)CC(=O)N4CC(C(=O)O)C4)C3)nn2c1N(C)c1nc(-c2ccc(F)cc2)c(C#N)s1` (stereo not drawn) [Example 35, 1-{2-[(1-(5-((5-cyano-4-(4-fluorophenyl)thiazol-2-yl)(methyl)amino)-6-ethylimidazo[2,1-b][1,3,4]thiadiazol-2-yl)pyrrolidin-3-yl)(methyl)amino]acetyl}azetidine-3-carboxylic acid], the IC50 lay within 0.01 to 100 nM.

Take `CCc1nc2sc(N3CC[C@@H](N(C)CC(=O)N4CC(F)C4)C3)nn2c1N(C)c1nc(-c2ccc(F)cc2)c(C#N)s1` [Example 39, (R)-2-{[6-ethyl-2-(3-((2-(3-fluoroazetidin-1-yl)-2-oxoethyl)(methyl)amino)pyrrolidin-1-yl)imidazo[2,1-b][1,3,4]thiadiazol-5-yl](methyl)amino}-4-(4-fluorophenyl)thiazole-5-carbonitrile]: the IC50 lay in the range of 100 to 500 nM.

As to `CCc1nc2sc(N3CC[C@@H](N(C)CC(=O)N4CCOCC4)C3)nn2c1N(C)c1nc(-c2ccc(F)cc2)c(C#N)s1` [Example 40, (R)-2-{[6-ethyl-2-(3-(methyl(2-morpholino-2-oxoethyl)amino)pyrrolidin-1-yl)imidazo[2,1-b][1,3,4]thiadiazol-5-yl](methyl)amino}-4-(4-fluorophenyl)thiazole-5-carbonitrile], the IC50 lay in the range of 100 to 500 nM.

Take `CCc1nc2sc(N3CC[C@@H](N(C)CC(=O)N4CC(C(=O)OC)C4)C3)nn2c1N(C)c1nc(-c2ccc(F)cc2)c(C#N)s1` [Example 42, methyl (R)-1-{2-[(1-(5-((5-cyano-4-(4-fluorophenyl)thiazol-2-yl)(methyl)amino)-6-ethylimidazo[2,1-b][1,3,4]thiadiazol-2-yl)pyrrolidin-3-yl)(methyl)amino]acetyl}azetidine-3-carboxylate]: the concentration for half-maximal inhibition (IC50) lay in the range of 100 to 500 nM.

On to `CCc1nc2sc(N3CC[C@H](N(C)CC(=O)N4CC(C(=O)OC)C4)C3)nn2c1N(C)c1nc(-c2ccc(F)cc2)c(C#N)s1` [Example 43, methyl (S)-1-{2-[(1-(5-((5-cyano-4-(4-fluorophenyl)thiazol-2-yl)(methyl)amino)-6-ethylimidazo[2,1-b][1,3,4]thiadiazol-2-yl)pyrrolidin-3-yl)(methyl)amino]acetyl}azetidine-3-carboxylate], for which the IC50 was 0.01 to 100 nM.

In turn, `CCc1nc2sc(N3CC[C@@H](N(C)CC(=O)N4CC(C(=O)O)C4)C3)nn2c1N(C)c1nc(-c2ccc(F)cc2)c(C#N)s1` [Example 44, (R)-1-{2-[(1-(5-((5-cyano-4-(4-fluorophenyl)thiazol-2-yl)(methyl)amino)-6-ethylimidazo[2,1-b][1,3,4]thiadiazol-2-yl}pyrrolidin-3-yl)(methyl)amino]acetyl}azetidine-3-carboxylic acid] yielded an IC50 of 100 to 500 nM.

`CCc1nc2sc(N3CC[C@@H](N(C)CC(=O)N4CC(C#N)C4)C3)nn2c1N(C)c1nc(-c2ccc(F)cc2)c(C#N)s1` [Example 46, (R)-2-{[2-(3-((2-(3-cyanoazetidin-1-yl)-2-oxoethyl)(methyl)amino)pyrrolidin-1-yl)-6-ethylimidazo[2,1-b][1,3,4]thiadiazol-5-yl](methyl)amino}-4-(4-fluorophenyl)thiazole-5-carbonitrile]: the 50% inhibitory concentration (IC50) was in the range of 100 to 500 nM.
